In patent US9359298B2, “Cajanine structure analogous compound, preparation method and use” (INSTITUTE OF MEDICINAL BIOTECHNOLOGY, CHINESE ACADEMY OF …, priority 2011, dated 2016):
Values after ≈ are worked out from the molar mass of the structure shown. Read-outs that look alike come from different tables or passages of the source.

Columns and labels:
Type in all cases: cell-based
Coxsackie virus B6 = experiment: Coxsackie virus activity assay (CPE in Vero cells); conditions: Vero
[1] = tested on: Influenza A virus (hanfang359/95); experiment: Determination of anti-influenza virus activity (CPE in MDCK cells); conditions: for IC50: Influenza A virus, MDCK, 36 h; for anti-influenza virus activities compared with the lead compound cajanine: statement in words
HCV = experiment: Anti-hepatitis C virus (HCV) activity assay (HCV RNA in Huh7.5 cells); conditions: for EC50: Hepatitis C virus, Huh7.5, 72 h, read-out: HCV EC50; for anti-HCV viral activity: statement in words
Protocol: Inoculate Huh7.5 cells into 96-well plates to a density of 3×10^4 cells/cm^2, culture for 24h, infect the cells with 45 IU/cell HCV supernatant, meanwhile, add drug solutions or solvent control for treatment.

HIV-1 III B virus = experiment: Anti-HIV activity assay (P24 antigen in MT-4 cells); conditions: for IC50: Human immunodeficiency virus 1, MT4, 96 h, read-out: HIV IC50; for anti-HIV viral activity: statement in words
[2] = read-out: COX-B6 IC50, Vero cells, about 100TCID50, CPE, Reed-Muench
[3] = Huh7.5 cells, 72 h, HCV RNA by RT-PCR, Reed-Muench
[4] = MT-4 cells, HIV-1 III B 100TCID50, 96 h, P24 antigen

Row | SMILES | IC50 (Coxsackie virus B6; [2]) [µg/mL] | IC50 [1] [µg/mL] | EC50 (HCV; [3]) [µg/mL] | IC50 (HIV-1 III B virus; [4]) [µg/mL] | anti-HCV viral activity (HCV) | anti-HIV viral activity (HIV-1 III B virus) | anti-influenza virus activities compared with the lead compound cajanine [1] | IC50 (Coxsackie virus B6; read-out: COX-B6 IC50) [µg/mL] | EC50 (HCV) [µg/mL] | IC50 (HIV-1 III B virus) [µg/mL]
1 | COc1cc(/C=C/c2ccccc2)cc(OC(=O)c2cccnc2)c1CC=C(C)C [Compound 24l, 2-isopentenyl-3-(pyridyl-3-formyloxy)-5-[(E)-styryl]anisole] | 0.95 (≈ 2.38 µM) | 1.04 (≈ 2.6 µM) | 1.6 (≈ 4.01 µM) | 1.4 (≈ 3.5 µM) |  |  |  |  |  | 
2 | COC(=O)c1c(/C=C/c2ccccc2)cc(OC)c(CC=C(C)C)c1OC(=O)CN [Compound 24a] | 3.21 (≈ 7.84 µM) | 2.31 (≈ 5.64 µM) | 0.98 (≈ 2.39 µM) | 1.79 (≈ 4.37 µM) |  |  |  |  |  | 
3 | COC(=O)c1c(/C=C/c2cc(OC)ccn2)cc(OC)c(CC=C(C)C)c1O [Compound 8v, methyl 2-hydroxy-3-isopentenyl-4-methoxy-6-[(E)-2-(4-methoxypyrid-2-yl)ethenyl]benzoate] | 2.68 (≈ 6.99 µM) | 0.87 (≈ 2.27 µM) | 2.39 (≈ 6.23 µM) | 1.01 (≈ 2.63 µM) | stronger anti-HIV, HCV viral activities | stronger anti-HIV, HCV viral activities |  |  |  | 
4 | COC(=O)c1c(/C=C/c2ccccc2)cc(OC)c(CC=C(C)C)c1OC(=O)c1cccnc1 [Compound 24j, 2-(pyridyl-3-formylox)-3-isopentenyl-4-methoxy-6-[(E)-styryl]-benzoate] | 3.61 (≈ 7.89 µM) | 2.36 (≈ 5.16 µM) | 1.35 (≈ 2.95 µM) | 2.65 (≈ 5.79 µM) |  |  |  |  |  | 
5 | COc1cc(/C=C/c2ccccc2)cc(OCC2CNCCN2)c1CC=C(C)C (stereo not drawn) [Compound 26f, 2-isopentenyl-3-(piperazin-2-yl)methoxy-5-[(E)-styryl]anisole] | 0.98 (≈ 2.5 µM) | 0.68 (≈ 1.73 µM) | 1.39 (≈ 3.54 µM) | 1.61 (≈ 4.1 µM) |  |  | significantly stronger than the lead compound cajanine |  |  | 
6 | NC(=O)c1ncn([C@@H]2O[C@H](CO)[C@@H](O)[C@H]2O)n1 [RBV, Ribavirin, reference compound] | 412 (≈ 1690 µM) | 0.59 (≈ 2.42 µM) |  |  |  |  |  |  |  | 
7 | COc1cc(/C=C/c2ccccc2)cc(OC(=O)CN)c1CC=C(C)C [Compound 24c, 2-isopentenyl-3-aminoacetoxy-5-[(E)styryl]anisole] | 0.98 (≈ 2.79 µM) | 1.24 (≈ 3.53 µM) | 0.94 (≈ 2.67 µM) | 2.78 (≈ 7.91 µM) |  |  |  |  |  | 
8 | COc1cc(/C=C/c2ccccc2)cc(OC(=O)CN(C)C)c1CC=C(C)C [Compound 24o, 2-isopentenyl-3-(N,N-dimethylacetoxy)-5-[(E)-styryl]anisole] | 1.21 (≈ 3.19 µM) | 2.31 (≈ 6.09 µM) | 1.34 (≈ 3.53 µM) | 0.69 (≈ 1.82 µM) |  |  |  |  |  | 
9 | COC(=O)c1c(/C=C/c2ccccc2)cc(OC)c(CC=C(C)C)c1OC(=N)N [Compound 27a, 2-iso-ureido-3-isopentenyl-4-methoxy-6-[(E)-styryl]-benzoate] | 2.34 (≈ 5.93 µM) | 1.32 (≈ 3.35 µM) | 1.34 (≈ 3.4 µM) | 2.48 (≈ 6.29 µM) |  |  |  |  |  | 
10 | COC(=O)c1c(/C=C/c2ccccc2)cc(OC)c(CC=C(C)C)c1OC(C)=O [Compound 24g, methyl 2-acetoxy-3-isopentenyl-4-methoxy-6-[(E)-styryl]benzoate] | 1.65 (≈ 4.18 µM) | 0.25 (≈ 0.634 µM) | 0.83 (≈ 2.1 µM) | 0.33 (≈ 0.837 µM) |  |  | significantly stronger than the lead compound cajanine |  |  | 
11 | COC(=O)c1c(/C=C/c2ccccc2)cc(OC)c(CC=C(C)C)c1OC(=O)NN [Compound 29a, methyl 2-Hydrazinoformyloxy-3-isopentenyl-4-methoxy-6-[(E)-styryl]benzoate] |  | 0.98 (≈ 2.39 µM) |  |  | stronger anti-HIV, HCV viral activities | stronger anti-HIV, HCV viral activities |  | 1.36 (≈ 3.31 µM) | 0.51 (≈ 1.24 µM) | 0.43 (≈ 1.05 µM)
12 | COc1cc(/C=C/c2ccccc2)cc(OC(=O)C(=O)O)c1CC=C(C)C [Compound 31c, 2-isopentenyl-3-carboxyformyloxy-5-[(E)-styryl]anisole] | 0.67 (≈ 1.83 µM) | 0.08 (≈ 0.218 µM) | 0.77 (≈ 2.1 µM) | 0.29 (≈ 0.791 µM) | stronger anti-HIV, HCV viral activities | stronger anti-HIV, HCV viral activities | significantly stronger than the lead compound cajanine |  |  | 
13 | COC(=O)c1c(/C=C/c2ccccc2)cc(OC)c(CC=C(C)C)c1OC(=O)c1cnc[nH]1 [Compound 24p] | 2.36 (≈ 5.29 µM) | 1.32 (≈ 2.96 µM) | 0.77 (≈ 1.72 µM) | 0.31 (≈ 0.694 µM) |  |  |  |  |  | 
14 | CCOC(=O)C1=C[C@@H](OC(CC)CC)[C@H](NC(C)=O)[C@@H](N)C1 [Oseltamivirphosphate, reference compound] |  | 0.22 (≈ 0.704 µM) |  |  |  |  |  |  |  | 
15 | COC(=O)c1c(/C=C/c2ccccc2)cc(OC)c(CC=C(C)C)c1OC(=O)C(=O)O [Compound 31a, methyl 2-carboxyformylxy-3-isopentenyl-4-methoxy-6-[(E)-styryl]benzoate] | 2.31 (≈ 5.44 µM) | 0.14 (≈ 0.33 µM) | 0.71 (≈ 1.67 µM) | 1.3 (≈ 3.06 µM) |  |  | significantly stronger than the lead compound cajanine |  |  | 
16 | COc1cc(/C=C/c2ccccc2)cc(OC(=O)C2CCCN2)c1CC=C(C)C (stereo not drawn) [Compound 24f] | 0.21 (≈ 0.536 µM) | 0.13 (≈ 0.332 µM) | 0.69 (≈ 1.76 µM) | 1.01 (≈ 2.58 µM) |  |  | significantly stronger than the lead compound cajanine |  |  | 
17 | COC(=O)c1c(/C=C/c2ccccc2)cc(OC)c(CC=C(C)C)c1OCN [Compound 26a] | 6.54 (≈ 17.1 µM) | 2.31 (≈ 6.06 µM) | 2.09 (≈ 5.48 µM) | 1.73 (≈ 4.54 µM) |  |  |  |  |  | 
18 | COC(=O)c1c(/C=C/c2ccccc2)cc(OC)c(CC=C(C)C)c1OCC1CNCCN1 (stereo not drawn) [Compound 26d, methyl 2-(piperazin-2-yl)methoxy-3-isopentenyl-4-methoxy-6-[(E)-styryl]benzoate] | 2.75 (≈ 6.1 µM) | 1.36 (≈ 3.02 µM) | 1.53 (≈ 3.4 µM) |  |  |  |  |  |  | 1.36 (≈ 3.02 µM)
19 | COC(=O)c1c(/C=C/c2ccccn2)cc(OC)c(CC=C(C)C)c1O [Compound 8t, methyl 2-hydroxy-3-isopentenyl-4-methoxy-6-[(E)-2-(pyrid-2-yl)ethenyl]benzoate] | 1.32 (≈ 3.73 µM) | 0.12 (≈ 0.34 µM) | 0.64 (≈ 1.81 µM) | 0.6 (≈ 1.7 µM) | stronger anti-HIV, HCV viral activities | stronger anti-HIV, HCV viral activities |  |  |  | 
20 | COc1cc(/C=C/c2ccccc2)cc(OC(=O)c2cnc[nH]2)c1CC=C(C)C [Compound 24r] | 0.68 (≈ 1.75 µM) | 0.98 (≈ 2.52 µM) | 1.05 (≈ 2.7 µM) | 2.31 (≈ 5.95 µM) |  |  |  |  |  | 
21 | COc1cc(/C=C/c2ccccc2)cc(OC(=O)NN)c1CC=C(C)C [Compound 29c, 2-isopentenyl-3-hydrazinoformylox-5-[(E)-styryl]anisole] |  | 0.24 (≈ 0.681 µM) |  |  |  |  | significantly stronger than the lead compound cajanine | 0.36 (≈ 1.02 µM) | 0.89 (≈ 2.53 µM) | 0.6 (≈ 1.7 µM)
22 | COc1cc(/C=C/c2ccccc2)cc(OC(=N)N)c1CC=C(C)C [Compound 27c, 2-isopentenyl-3-isoureido-5-[(E)-styryl]anisole] | 0.92 (≈ 2.73 µM) | 0.54 (≈ 1.61 µM) | 1.26 (≈ 3.75 µM) | 2.03 (≈ 6.03 µM) |  |  |  |  |  | 
23 | COC(=O)c1c(/C=C/c2ccccc2)cc(OC)c(CC=C(C)C)c1OC(=O)C1CCCN1 (stereo not drawn) [Compound 24d] | 0.45 (≈ 1 µM) | 0.12 (≈ 0.267 µM) | 0.87 (≈ 1.94 µM) | 0.81 (≈ 1.8 µM) |  |  |  |  |  | 
24 | COc1cc(/C=C/c2ccccc2)cc(OC(C)=O)c1CC=C(C)C [Compound 24i] | 0.92 (≈ 2.73 µM) | 0.15 (≈ 0.446 µM) | 0.99 (≈ 2.94 µM) | 2.09 (≈ 6.21 µM) |  |  | significantly stronger than the lead compound cajanine |  |  | 
25 | COc1cc(/C=C/c2ccccc2)cc(OCN)c1CC=C(C)C [Compound 26c, 2-isopentenyl-3-aminomethoxy-5-[(E)-styryl]anisole] | 2.64 (≈ 8.16 µM) | 1.35 (≈ 4.17 µM) | 2.07 (≈ 6.4 µM) | 3.18 (≈ 9.83 µM) |  |  |  |  |  | 
26 | COC(=O)c1c(/C=C/c2ccccc2)cc(OC)c(CC=C(C)C)c1OC(=O)CN(C)C [Compound 24m, 2-(N,N-dimethylacetyloxy)-3-isopentenyl-4-methoxy-6-[(E)-styryl]benzoate] | 3.46 (≈ 7.91 µM) | 6.52 (≈ 14.9 µM) | 0.8 (≈ 1.83 µM) | 2.6 (≈ 5.94 µM) |  |  |  |  |  | 
